{"source": "PubChem BioAssay AID504640", "about": "(Southern Research Specialized Biocontainment Screening …, 2011)", "note": "Calls of active or inactive are those of the source. No rule for the calls is given here. Where a SMILES comes first, the peptide text is derived from it. The star is where a group is joined. Cbz = O=C(OCc1ccccc1)*"}
{"tested_on": "not listed separately", "experiment": "cytotoxicity in THP-1 cells, cytotoxicity control, cell-based (AID 504640)", "conditions": "THP-1 cell viability, cytotoxicity; at 100 µM (top of the series)"}
{"compound": "COC(=O)C(C)Oc1ccc(-c2nccc(-c3ccccn3)n2)cc1", "note": "(configuration not stated)", "viability": "91% (inactive)"}
{"compound": "Cc1ccc(NC(=O)C2C3/C=C\\CCCCC32)cc1C", "note": "(configuration not stated)", "viability": "86.3% (inactive)"}
{"compound": "Cc1nc(SCC(=O)NC2CCCCC2)[nH]c(=O)c1C", "viability": "106% (inactive)"}
{"compound": "COc1cc(NC(=O)C/C(C)=N/NC(=O)c2ccccn2)c(OC)cc1Cl", "viability": "101% (inactive)"}
{"compound": "COC(=O)c1ccc(CNc2c(N3CCCC3)c(=O)c2=O)cc1", "viability": "80.7% (inactive)"}
{"compound": "O=C(CSc1nc2ccccc2c(=O)[nH]1)NC1CCCCC1", "viability": "92.5% (inactive)"}
{"compound": "CCOC(=O)COn1c2c(c3c4no[n+]([O-])c4ccc31)CCCC2", "viability": "92.6% (inactive)"}
{"compound": "COC(=O)C1CC(=O)N(c2ccc(OCc3ccccc3Cl)cc2)C1", "note": "(configuration not stated)", "viability": "86.1% (inactive)"}
{"compound": "CCOC(=O)COc1ccc(/C=C2\\NC(=S)N(CC)C2=O)cc1", "viability": "89.2% (inactive)"}
{"compound": "COC(=O)CCc1nc2c(C#N)c(-c3ccc(Cl)cc3)ccn2n1", "viability": "108% (inactive)"}
{"compound": "CCOC1OC(=O)C(Cl)=C1Nc1ccccc1C", "note": "(configuration not stated)", "viability": "81.1% (inactive)"}
{"tested_on": "THP-1 cell viability, cytotoxicity", "experiment": "cytotoxicity in THP-1 cells, cytotoxicity control, cell-based (AID 504640)", "conditions": "not given", "units": {"CC50": "µM"}}
{"compound": "Cc1ccc2ccc3ccc(C)nc3c2n1", "CC50": "< 0.2"}
{"compound": "Oc1ccccc1/C=N/Nc1ccnc(SCc2ccccc2)n1", "CC50": 44.9}
{"compound": "CC[N+](C)(CC)CCCCOc1ccc2c(c1)C(=O)c1cc(OCCCC[N+](C)(CC)CC)ccc1-2", "CC50": 23.1}
{"compound": "Cc1cccc(-c2oc3ccc(-c4ccc5c(c4)OCO5)cc3c2C#Cc2cncn2C)c1", "CC50": 35.9}
{"compound": "COC(=O)c1cc(=O)n(-c2ccc(F)cc2)c(=Nc2ccc(F)cc2)s1", "CC50": 17.6}
{"compound": "CCC(C)Nc1ccc(NC(C)CC)cc1", "note": "(configuration not stated)", "CC50": 3.31}
{"compound": "Cc1ccc2c(c1)c(C1=c3ccccc3=NC1=O)c(O)n2C", "CC50": 12.6}
{"compound": "O=C(NCC(c1cccs1)N1CCOCC1)c1cc([N+](=O)[O-])cc([N+](=O)[O-])c1", "note": "(configuration not stated)", "CC50": 58.4}
{"compound": "CC(C)NC(=O)c1sc(=S)n2c1[nH]c(=O)c1ccc(C(=O)NCCc3ccc(Cl)cc3)cc12", "CC50": 52.8}
{"compound": "COC(=O)C(Nc1nc(SCC(=O)NC2CCCCC2)nc2ccccc12)c1ccccc1", "note": "(configuration not stated)", "CC50": 50.4}
{"compound": "Cc1cccc(/C=C/C(=O)c2ccc([N+](=O)[O-])o2)c1", "CC50": 6.64}
{"compound": "c1ccc(/N=C2\\N=C(Nc3ccccn3)c3ccccc32)nc1", "CC50": "< 0.2"}
{"compound": "Cc1nn2c(NCc3ccccn3)cc(C(C)C)nc2c1-c1ccccc1", "CC50": 2.88}
{"compound": "CNc1nc(SCc2ccccc2Cl)nc2c1CCCC2", "CC50": 28}
{"compound": "O=C(/C=C/c1ccccc1)N1CCN(CCN2C(=O)c3cccc4cccc(c34)C2=O)CC1", "CC50": 41.2}
{"compound": "CCOC(=O)c1ccc(NC(=O)Cn2ncc(Cl)c(Cl)c2=O)cc1", "CC50": 0.88}
{"compound": "CCOC(=O)CNC(=O)[C@H](Cc1ccccc1)NC(=O)OCc1ccccc1", "note": "(Cbz-Phe-Gly-OEt)", "CC50": 43.1}
{"compound": "S=c1nc[nH]c2nc[nH]c12", "CC50": 0.56}
{"compound": "Cc1cc(Br)ccc1NC(=O)c1cnc(N2CCN(c3ccccn3)CC2)c2ccccc12", "CC50": 35.6}
{"compound": "Cc1ccc(C(=O)N/N=C(/CC(=O)c2cccs2)C(F)(F)F)cc1", "CC50": 40.4}
{"compound": "CCOC(=O)C(C)Sc1ncnc2c1nnn2-c1ccc(F)cc1", "note": "(configuration not stated)", "CC50": 38.7}
